Data on one compound can be found in patent US20030162834A1, “Natural physiologically active material effective on fish diseases and fish food containing the material” (priority 1998, published 2003).

Data set [1] can be described thus: Growth trial: tiger puffer fed basal diet supplemented with 0.5% octanoic acid. The class given is in vivo. As for the experimental part: The inventors conducted trials using tiger puffer to test whether the octanoic acid adversely affects growth of fish. Two trial groups were prepared; i.e., one group fed the basal diet supplemented with 0.5% of octanoic acid (5 g of octanoic acid added for 1 kg of diet), and the other group fed the basal diet alone. Trial conditions were that 50 pieces of tiger puffer for each group were put in a 1-t water tank, and the puffs were fed twice per day, i.e., in the morning and evening. A bleeding trial period was 45 days and the water temperature was 25+−1 degrees centigrade during the trial period.

Data set [2] deals with Heterobothrium okamotoi. Kind of data set: Trial 1: in vitro immersion of oncomiracidia and gill-attached larvae in fatty acid seawater solutions. Conditions: 1 mM in seawater, 20 degrees centigrade. It is filed as cell-based. As for the experimental part:
Fatty acids having carbon number C2, C4 and C6-C10 were each dissolved in seawater at 1 mM concentration, and oncomiracidia of Heterobothrium okamotoi and larvae attaching to the gill were immersed in the seawater solutions. After 2 hours from the start of immersion, the efficacy of the fatty acids was investigated by counting the number of dead oncomiracidia and the number of larvae dropping down from the gill. More than 30 individuals of parasites were transferred to each group.
For any of the groups, the trial was made under condition of 20 degrees centigrade.

For data set [3], the system named is Heterobothrium okamotoi. Description: Trial 6: vitamin C enhancement trial on tiger puffer. The class given is in vivo. Conditions: 5 g octanoic acid per 1 kg pellets (with or without 200 mg vitamin C per kg), oral, 15 days after first challenge. The text has this:
Fish tested: Tiger puffer weighing approximately 50.0 g in average.
Trial groups: Three groups, i.e., an octanoic-acid added group in which fish were fed diets added with octanoic acid, an octanoic-acid added/vitamin-C enhanced group in which fish were fed diets added with both octanoic acid and vitamin C, and a control group in which fish were fed diets not added with octanoic acid. The feeding rate was 2% of fish weight/day for each group.
Trial diets: The diets added with octanoic acid were prepared by spraying 5 g of octanoic acid to 1 kg of commercially available pellets for tiger puffer. The diets added with both octanoic acid and vitamin C were prepared by spraying 200 mg of vitamin C, dissolved in water, to 1 kg of the above diets added with octanoic acid. The control group fish were fed the commercially available pellets for tiger puffer.
Challenge trial: Each 5 pieces of fish from among a shoal of fish, in which no diseases such as parasitic infections were found, were put in a 100-liter water tank, and were fed the respective trial diets. After 7 days, approximately 750 individuals of oncomiracidia of Heterobothrium okamotoi were put into each water tank to infect the fish while water flow was stopped for 1 hour. The infection procedure was repeated every other day 5 times in total under the same condition. […]

The test system of a further data set is Cryptocaryon irritans. Kind of data set: Trial 8: octanoic acid versus its monoglyceride and triglyceride, oral, red sea bream. The class given is in vivo. Conditions: diet amount equal to 17.5 mM octanoic acid residues (2.5 g acid, 3.8 g monoglyceride, 2.7 g triglyceride per kg). From the text:
Fish tested: Red sea bream weighing approximately 15.8 g in average.
Trial groups: Four groups, i.e., an octanoic-acid added group in which fish were fed diets added with octanoic acid, a monoglyceride added group in which fish were fed diets added with monoglyceride of octanoic acid, a triglyceride added group in which fish were fed diets added with triglyceride of octanoic acid, and a control group in which fish were fed diets added with neither octanoic acid nor glycerides. The feeding rate was 3% of fish weight/day for each group.
Trial diets: The diets added with octanoic acid were prepared by spraying 2.5 g (17.5 mM with respect to the diet weight) of octanoic acid to 1 kg of commercially available pellets for red sea bream. […]. Specifically, the diets added with monoglyceride and triglyceride were prepared respectively by spraying 3.8 g of monoglyceride and 2.7 g of triglyceride to 1 kg of the commercially available pellets for red sea bream. The control group fish were fed the commercially available pellets for red sea bream.
Challenge trial: Each 10 pieces of fish from among a shoal of fish, in which no diseases such as Cryptocaryon irritans infection were found, were put in a 100-liter water tank, and were fed the respective trial diets. After 5 days, approximately 2000 individuals of theronts of Cryptocaryon irritans were put into each water tank to infect the fish while water flow was stopped for 1 hour. Then, bleeding was continued for 31 days while feeding the respective trial diets. During the trial period, the water temperature was 24+−1 degrees centigrade and the water was exchanged at 20 cycles/day.
Evaluation was made by sampling 5 pieces of fish from each group after 18 and 31 days from the start of the challenge, and comparing the number of the parasites attaching to the gill of each fish.

Another data set relates to Bivagina tai larvae. Kind of data set: Trial 2: in vitro immersion in octanoic acid seawater. The class given is cell-based. Conditions: 800 PPM octanoic acid added to seawater, 20 degrees centigrade. The method, then: (§1) 800 PPM of octanoic acid was added to seawater and dissolved therein maximally. In this seawater solution, Bivagina tai larvae sampled from the gill of red sea bream, Heteraxine heterocerca larvae sampled from the gill of young yellowtail, Benedenia seriolae adults sampled from the body surface of young yellowtail, Kudoa shiomitsui spores sampled from the heart of tiger puffer, and Pseudocaligus fugu adults sampled from the body surface of tiger puffer were immersed under condition of 20 degrees centigrade, followed by observation. As control, another group was managed using seawater alone. More than 30 individuals of parasites were transferred to each group.

The subject of data set [4] is Pseudocaligus fugu adults. The description is as above. The class given is cell-based. Conditions: 800 PPM octanoic acid added to seawater, 20 degrees centigrade. As for the experimental part: as §1
The test system of data set [5] is Heteraxine heterocerca larvae. The description is as above. The class given is cell-based. Conditions: 800 PPM octanoic acid added to seawater, 20 degrees centigrade. As for the experimental part:
as §1

The test system of data set [6] is Benedenia seriolae adults. The data set is described as above. It is filed as cell-based. The note with it: 800 PPM octanoic acid added to seawater, 20 degrees centigrade. As for the experimental part:
as §1

The next data set deals with Kudoa shiomitsui spores. Described as above. The class given is cell-based. The note with it: 800 PPM octanoic acid added to seawater, 20 degrees centigrade. The method, then:
as §1

For the compound `CCCCCCCC(=O)O` [octanoic acid], the died fish entry in [1] (continued for succeeding seven months) is listed as “no died fish”. In data set [1] (in vivo), the “adverse effects on puffer growth” value is reported as “adverse effects on the puffer growth were not found” and the “content of octanoic acid in the edible muscle” value is listed as “no octanoic acid was detected”. For the same compound, the “emergence of dead oncomiracidia” value in the data set on Heterobothrium okamotoi [2] is listed as “emerged earliest”. Moreover, the “larvae dropping down from the gill (drop-down rate)” value in the data set with Heterobothrium okamotoi [2] (2 hours) is given as “highest drop-down rate”. In addition, in the data set with Heterobothrium okamotoi [3], the “number of parasites attaching to the gill” value is “apparently fewer”. In addition, the “number of parasites attaching to the gill after 18 and 31 days, versus control” value in the data set with Cryptocaryon irritans is listed as “apparently fewer”. For the same compound, in the data set on Bivagina tai larvae, the contraction of parasites entry is “became contracted apparently” and the “time until contraction occurred” value is given as “approximately 10 minutes”. Besides, in [4], the contraction of parasites result is given as “no contraction” and the “time until reduction in swimming activity was found” value is “approximately 1 hour”. In data set [5], the contraction of parasites result was “became contracted apparently” and the “time until contraction occurred” value was “approximately 10 minutes”. Besides, in [6], the contraction of parasites result is “became contracted apparently” and the “time until contraction occurred” value was “approximately 10 minutes”. Further, the “time until burst image of the spores was observed” value with Kudoa shiomitsui spores was “approximately 1 hour”.
